Results on 1 molecule are retold here after paper PMC9037349, “Elucidation of molecular interactions of theaflavin monogallate with camel milk lactoferrin: detailed spectroscopic and dynamic simulation studies” (RSC Advances, 2021).

The target in the experiment is T1, camel milk lactoferrin (Camelus dromedarius, UniProt Q9TUM0).
T1 construct: gene LTF; lactoferrin isolated and purified from camel milk
T1 sequence (Q9TUM0 20-708): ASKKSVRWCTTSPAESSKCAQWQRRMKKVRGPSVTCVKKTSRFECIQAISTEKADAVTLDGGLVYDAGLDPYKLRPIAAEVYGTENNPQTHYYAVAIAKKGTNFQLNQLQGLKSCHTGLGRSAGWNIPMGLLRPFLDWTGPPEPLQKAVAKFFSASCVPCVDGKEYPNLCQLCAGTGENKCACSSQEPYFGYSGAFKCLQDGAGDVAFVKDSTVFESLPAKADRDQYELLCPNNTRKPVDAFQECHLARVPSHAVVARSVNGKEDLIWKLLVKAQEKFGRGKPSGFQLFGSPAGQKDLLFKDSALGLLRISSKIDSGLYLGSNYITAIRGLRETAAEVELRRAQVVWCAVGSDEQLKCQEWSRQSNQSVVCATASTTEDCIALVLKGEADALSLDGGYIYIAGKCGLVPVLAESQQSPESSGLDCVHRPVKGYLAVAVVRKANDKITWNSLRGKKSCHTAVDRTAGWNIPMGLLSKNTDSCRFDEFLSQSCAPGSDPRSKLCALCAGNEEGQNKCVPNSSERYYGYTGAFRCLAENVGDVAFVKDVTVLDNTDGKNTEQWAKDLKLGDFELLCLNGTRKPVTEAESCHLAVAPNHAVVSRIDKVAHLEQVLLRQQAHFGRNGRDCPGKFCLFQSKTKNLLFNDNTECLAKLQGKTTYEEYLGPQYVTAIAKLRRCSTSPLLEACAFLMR
Nature of the experiment: intrinsic fluorescence quenching titration (static; modified Stern-Volmer, […] K), supported by FRET, ANS fluorescence and CD. The experiment is classed as binding. Particulars: read-out: K a × 10^4 (M^-1) (converted).

In the case of `O=C(O[C@@H]1Cc2c(O)cc(O)cc2O[C@@H]1c1cc(O)c(=O)c2c(O)c(O)cc([C@H]3Oc4cc(O)cc(O)c4C[C@H]3O)c2c1)c1cc(O)c(O)c(O)c1` [theaflavin monogallate], the Kd is 23.4 µM.
